The results in this text go back to patent US20250195530A1, “POLQ INHIBITORS” (ASTRAZENECA AB, priority 2022, published 2025).

The structures appear in SMILES notation. Where two headings read alike, the source gives them in different places.

This experiment concerns DLD-1 BRCA2−/− cells. Description: Homologous recombination synthetic lethal inhibition of proliferation, DLD-1 BRCA2-/- (Cell Titre Glo 3D). Format: cell-based. As to conditions: for IC50: Homo sapiens; for POLQ PD Prolif Lumin: DLD-1 BRCA2-/- proliferation. An excerpt: This assay identifies anti-proliferative effects of POLQ compounds in the homologous recombination deficient colorectal cell line DLD-1 BRCA2−/− over 8-9 population doublings (7 days for DLD-1 and 12 days for DLD-1 BRCA2−/−). DLD1 BRCA2 wt are used as a control to detect cell toxic effects not specific to homologous recombination deficiency.
DLD-1 BRCA2−/− and DLD-1 cells were kept in continuous culture in Assay Medium (RPMI 1640 phenol red free (Sigma R7509) containing 1% GlutaMAX (Gibco 35050) and 10% Foetal Bovine Serum (Gibco 10270-106)). On the day of the assay cells in culture of ˜80-90% confluent were used. Cell monolayers were washed with 10 mL PBS, then removed and added 2 mL TrypLE Express (Gibco 12604). The cells with TrypLE Express were incubated for 5 minutes in cell culture incubator and then the detached cells resuspend in 15 mL Assay Medium. Cells were counted using a ViCell and the cell images were monitored for clumps of cells, ideally they should be single or <3 cell clusters. The cells were diluted to 3,000 cells/mL of DLD-1 BRCA2−/− and 1,500 cells/mL of DLD-1 in Assay Medium and 100 μL added per well of transparent bottomed, black, tissue culture-treated 96-well plates (CoStar, No. 3904) Assay Ready Plates. The Assay Ready Plates contain a 10 point 10 μM to 0.51 nM dose range with three-fold dilutions in DMSO with a final volume of 100 nL. The plates were incubated at 37° C. with 5% C02 for 6 days. On day 6, 100 μL/well of Assay Medium was added to duplicate Assay Ready Plates. 90 μL of culture medium was removed from the cell plates and replenished with the Assay Media and compounds from the duplicate Assay Ready Plates using the Bravo. The plates were further incubated at 37° C. with 5% CO2. On day 7 the plates containing DLD-1 and Cell Titre Glo 3D (Promega G9683) were equilibrated to room temperature, then 60 μL of Cell Titre Glo 3D was added per well and incubated on a shaking platform for 30 min. Plates were read on the Envision measuring luminescence for 1 second per well. On day 12 the plates containing DLD-1 BRCA2−/− cells and Cell Titre Glo 3D (Promega G9683) were equilibrated to room temperature, then 60 μL Cell Titre Glo 3D added per well and incubated on a shaking platform for 30 min. Plates were read on the Envision measuring luminescence for 1 second per well. The data was exported into a suitable software package (such as Genedata) to perform curve fitting analysis. Inhibition of cell proliferation was expressed as an IC5o value and was determined by calculation of the concentration of compound that was required to give a 50% reduction of the average maximum Total Intensity signal.

Setting [1] is: DLD-1, DLD-1 BRCA2 −/−, mean, read-out: POLQ PD Prolif Lumin BRCA2 −/− mean pIC50 (converted).
Setting [2] is: DLD-1, DLD-1 BRCA2 −/− cells, mean, read-out: POLQ PD Prolif Lumin BRCA2 −/− mean pIC50 (converted).
The mark [3] stands for this setting: DLD-1, first proliferation column (c5), taken as DLD-1 BRCA2-/-, read-out: POLQ PD Prolif Lumin (converted).
Setting [4] is: DLD-1, first proliferation column, DLD-1 BRCA2-/-, read-out: POLQ PD Prolif Lumin (converted).
Setting [5] is: DLD-1, proliferation, luminescence, taken as DLD-1 BRCA2-/-, read-out: POLQ PD Prolif Lumin (converted).
Where [6] appears, read: DLD-1, first proliferation column (c5), DLD-1 BRCA2-/-, read-out: POLQ PD Prolif Lumin (converted).

Turning to `CC1(Oc2ncnc3c2nc(-c2cccc(OCC(F)(F)CC(=O)O)c2Cl)n3Cc2cccc(Cl)c2)CC1` [Example U63, 4-(2-chloro-3-(9-(3-chlorobenzyl)-6-(1-methylcyclopropoxy)-9H-purin-8-yl)phenoxy)-3,3-difluorobutanoic acid], under setting [1], the IC50 is 501 nM.

`CC1(Oc2ncnc3c2nc(-c2ccc(CC(N)=O)cc2Cl)n3Cc2cc(C#N)ccc2F)CC1` [Example T77, 2-(3-chloro-4-(9-(5-cyano-2-fluorobenzyl)-6-(1-methylcyclopropoxy)-9H-purin-8-yl)phenyl)acetamide]: under setting [2], the IC50 was 158 nM. With `Cc1ccnc(Cn2c(-c3ccc(N4CCNCCC4=O)cc3Cl)nc3c(OC4(C)CC4)ncnc32)c1` [Example T338, 4-(3-chloro-4-(6-(1-methylcyclopropoxy)-9-((4-methylpyridin-2-yl)methyl)-9H-purin-8-yl)phenyl)-1,4-diazepan-5-one], the IC50 under setting [3] is 2000 nM.

For `Cc1ccnc(Cn2c(-c3ccc(C(=O)NC[C@H](C)O)cc3Cl)nc3c(OC4(C)CC4)ncnc32)c1` [Example T218, (S)-3-chloro-N-(2-hydroxypropyl)-4-(6-(1-methylcyclopropoxy)-9-((4-methylpyridin-2-yl)methyl)-9H-purin-8-yl)benzamide], for the setting “DLD-1, DLD-1 BRCA2-/- proliferation, column head only partly shown, read-out: POLQ PD Prolif Lumin (converted)”, the IC50 was 631 nM. In the case of `CC(CCOc1ccc(-c2nc3c(OC4(C)CC4)ncnc3n2Cc2cccc(F)c2)c(Cl)c1)C(=O)O` (racemic) [Example U6, 4-(3-chloro-4-(9-(3-fluorobenzyl)-6-(1-methylcyclopropoxy)-9H-purin-8-yl)phenoxy)-2-methylbutanoic acid], under setting [1], the IC50 is 251 nM. On the same count and under the same terms, with `CC1(Oc2ncnc3c2nc(-c2cccc(OCCC(=O)O)c2Cl)n3Cc2cc(Cl)ccc2F)CC1` [Example U32, 3-(2-chloro-3-(9-(5-chloro-2-fluorobenzyl)-6-(1-methylcyclopropoxy)-9H-purin-8-yl)phenoxy)propanoic acid] the figure was 39.8 nM. As for `CC1(Oc2ncnc3c2nc(-c2cccc(O[C@H]4C[C@@H](C(=O)O)C4)c2Cl)n3Cc2cccc(Cl)c2)CC1` [Example T257, (1s,3s)-3-(2-chloro-3-(9-(3-chlorobenzyl)-6-(1-methylcyclopropoxy)-9H-purin-8-yl)phenoxy)cyclobutane-1-carboxylic acid], under “column head only partly shown”, the “POLQ PD Prolif Lumin” value came out at 7. Regarding `CC1(Oc2ncnc3c2nc(-c2ccc(CC(N)=O)cc2Cl)n3Cc2ccc(C#N)cc2)CC1` [Example T83, 2-(3-chloro-4-(9-(4-cyanobenzyl)-6-(1-methylcyclopropoxy)-9H-purin-8-yl)phenyl)acetamide], the IC50 under setting [2] is 7940 nM. Consider `Cc1ccnc(Cn2c(-c3ccc(OCCN4CCN(C)CC4)cc3Cl)nc3c(OC(C)(C)C)nccc32)c1` [Example T610, 4-(tert-butoxy)-2-(2-chloro-4-(2-(4-methylpiperazin-1-yl)ethoxy)phenyl)-1-((4-methylpyridin-2-yl)methyl)-1H-imidazo[4,5-c]pyridine], for which the IC50 under setting [4] was > 7940 nM. For the compound `CO[C@H]1CCN(C(=O)COc2ccc(-c3nc4c(OC5(C)CC5)ncnc4n3Cc3cc(C)ccn3)c(Cl)c2)C1` [Example T577, (S)-2-(3-chloro-4-(6-(1-methylcyclopropoxy)-9-((4-methylpyridin-2-yl)methyl)-9H-purin-8-yl)phenoxy)-1-(3-methoxypyrrolidin-1-yl)ethan-1-one], the IC50 under setting [4] is 398 nM. For `Cc1ccnc(Cn2c(-c3ccc(OCC(=O)N4CCNC(=O)C4)cc3Cl)nc3c(OC4(C)CC4)ncnc32)c1` [Example T432, 4-(2-(3-chloro-4-(6-(1-methylcyclopropoxy)-9-((4-methylpyridin-2-yl)methyl)-9H-purin-8-yl)phenoxy)acetyl)piperazin-2-one], the IC50 under setting [5] was > 6310 nM. Turning to `Cc1ccnc(Cn2c(-c3ccc(C(=O)N[C@H](C)CCO)cc3Cl)nc3c(OC4(C)CC4)ncnc32)c1` [Example T364, (R)-3-chloro-N-(4-hydroxybutan-2-yl)-4-(6-(1-methylcyclopropoxy)-9-((4-methylpyridin-2-yl)methyl)-9H-purin-8-yl)benzamide], under setting [3], the IC50 was 794 nM.

Take `COCCOc1ccc(-c2nc3c(OC4(C)CC4)ncnc3n2Cc2cc(C)ccn2)c(Cl)c1` [Example T125, 8-(2-chloro-4-(2-methoxyethoxy)phenyl)-6-(1-methylcyclopropoxy)-9-((4-methylpyridin-2-yl)methyl)-9H-purine]: under setting [6], the IC50 was 100 nM.

As for `Cc1ccnc(Cn2c(-c3ccc(O[C@H]4CCN(C(=O)CO)C4)cc3Cl)nc3c(OC4(C)CC4)ncnc32)c1` [Example T483, (S)-1-(3-(3-chloro-4-(6-(1-methylcyclopropoxy)-9-((4-methylpyridin-2-yl)methyl)-9H-purin-8-yl)phenoxy)pyrrolidin-1-yl)-2-hydroxyethan-1-one], under setting [6], the IC50 was 631 nM.

Consider `Cc1ccnc(Cn2c(-c3ccc(C(=O)N(C)C4COC4)cc3Cl)nc3c(OC4(C)CC4)ncnc32)c1` [Example T320, 3-chloro-N-methyl-4-(6-(1-methylcyclopropoxy)-9-((4-methylpyridin-2-yl)methyl)-9H-purin-8-yl)-N-(oxetan-3-yl)benzamide], for which, under setting [3], the IC50 was 3160 nM. As for `Cc1ccnc(Cn2c(-c3ccc(CCNC(=O)[C@@H](C)O)cc3Cl)nc3c(OC4(C)CC4)ncnc32)c1` [Example T368, (R)-N-(3-chloro-4-(6-(1-methylcyclopropoxy)-9-((4-methylpyridin-2-yl)methyl)-9H-purin-8-yl)phenethyl)-2-hydroxypropanamide], the IC50 under setting [3] is 631 nM. As to `CC(CCOc1ccc(-c2nc3c(OC4(C)CC4)ncnc3n2Cc2cc(F)cc(Cl)c2)c(Cl)c1)C(=O)O` (single isomer, unassigned) [Example T273, 4-(3-chloro-4-(9-(3-chloro-5-fluorobenzyl)-6-(1-methylcyclopropoxy)-9H-purin-8-yl)phenoxy)-2-methylbutanoic acid], where the note is “column head only partly shown”, the “POLQ PD Prolif Lumin” value is reported as 6.8. With `C[C@@H](OCCOc1ccc(-c2nc3c(OC4(C)CC4)ncnc3n2Cc2cccc(Cl)c2)c(Cl)c1)C(=O)O` [Example T306, (R)-2-(2-(3-chloro-4-(9-(3-chlorobenzyl)-6-(1-methylcyclopropoxy)-9H-purin-8-yl)phenoxy)ethoxy)propanoic acid], the IC50 under setting [3] was 794 nM. Consider `COc1cccc(Cn2c(-c3ccc(OCCC(C)C(=O)O)cc3Cl)nc3c(OC4(C)CC4)ncnc32)c1` (racemic) [Example T454, 4-(3-chloro-4-(9-(3-methoxybenzyl)-6-(1-methylcyclopropoxy)-9H-purin-8-yl)phenoxy)-2-methylbutanoic acid], for which the IC50 under setting [5] was 794 nM.

Turning to `CC1(Oc2ncnc3c2nc(-c2cccc(OCC(C)(C)C(=O)O)c2Cl)n3Cc2cccc(Cl)c2)CC1` [Example T298, 3-(2-chloro-3-(9-(3-chlorobenzyl)-6-(1-methylcyclopropoxy)-9H-purin-8-yl)phenoxy)-2,2-dimethylpropanoic acid], under setting [3], the IC50 was 631 nM. `CCOc1ccc(Cl)cc1Cn1c(-c2ccc(OCCC(C)C(=O)O)cc2Cl)nc2c(OC3(C)CC3)ncnc21` (racemic) [Example U59, 4-(3-chloro-4-(9-(5-chloro-2-ethoxybenzyl)-6-(1-methylcyclopropoxy)-9H-purin-8-yl)phenoxy)-2-methylbutanoic acid]: the IC50 under setting [1] was 63.1 nM. Turning to `Cc1cc(Cn2c(-c3ccc(CC(N)=O)cc3Cl)nc3c(OC4(C)CC4)ncnc32)ccn1` [Example T58, 2-(3-chloro-4-(6-(1-methylcyclopropoxy)-9-((2-methylpyridin-4-yl)methyl)-9H-purin-8-yl)phenyl)acetamide], under setting [2], the IC50 was > 10000 nM.
